Results taken from patent publication US20230068456A1, “REAL-TIME MONITORING OF IN VIVO FREE RADICAL SCAVENGERS THROUGH HYPERPOLARIZED N-ACETYL CYSTEINE ISOTOPES” (THE UNITED STATES OF AMERICA, AS REPRESENTED BY THE …, priority 2020, published 2023).

How the values were obtained:
[1] = tested on: SU.86.86 tumor xenografts; experiment: Dynamic 13C MR spectra of hyperpolarized [1-13C] NAC at 3T MRI, SU.86.86 tumor xenografts; assay type: in vivo; details: SU.86.86 mouse leg xenograft, iv, FIGS. 4B, 4C
Procedure: (§1) All of the animal experiments were conducted in compliance with the Guide for the Care and Use of Laboratory Animal Resources, and experimental protocols were approved by the Animal Care and Use Committee, National Cancer Institute (NCI-CCR-ACUC) (National Research Council, Committee for the Update of the Guide for the Care and Use of Laboratory Animals. Guide for the care and use of laboratory animals. Washington, D.C.: Institute of Laboratory Animal Resources 2011). The human pancreatic ductal adenocarcinoma (PDAC) cell lines, […], and SU.86.86 cells, were purchased from Threshold Pharmaceuticals (Redwood City, Calif.). Human pancreatic tumor inoculated mice were generated by subcutaneous injection of 3×10^5 cells into the right hind legs of mice. Detailed conditions for cell culture and xenograft tumor development were as described previously in K. Yamamoto, J. R. Brender, T. Seki, S. Kishimoto, N. Oshima, R. Choudhuri, S. S. Adler, E. M. Jagoda, K. Saito, N. Devasahayam, P. L. Choyke, J. B. Mitchell, and M. C. Krishna, Cancer Res 2020, 80, 2087-2093, which is incorporated herein in its entirety by reference. […] Both respiration (60-90 breaths per min) and temperature (35-37° C.) were maintained at a normal physiological range and monitored continuously during the animal experiment using the adjusted anesthesia. […]

[2] = tested on: Hs766t tumor xenografts; experiment: Dynamic 13C MR spectra and CSI of hyperpolarized [1-13C] NAC at 3T MRI, Hs766t tumor xenografts; assay type: in vivo, mouse
Procedure: as §1

[3] = target: T1, acylase 1 (Homo sapiens, UniProt Q03154); experiment: In vitro enzymatic assay of hyperpolarized NAC incubated with acylase 1 (1T NMR); assay type: biochemical; details: without inhibitor
T1 sequence (Q03154 1-408): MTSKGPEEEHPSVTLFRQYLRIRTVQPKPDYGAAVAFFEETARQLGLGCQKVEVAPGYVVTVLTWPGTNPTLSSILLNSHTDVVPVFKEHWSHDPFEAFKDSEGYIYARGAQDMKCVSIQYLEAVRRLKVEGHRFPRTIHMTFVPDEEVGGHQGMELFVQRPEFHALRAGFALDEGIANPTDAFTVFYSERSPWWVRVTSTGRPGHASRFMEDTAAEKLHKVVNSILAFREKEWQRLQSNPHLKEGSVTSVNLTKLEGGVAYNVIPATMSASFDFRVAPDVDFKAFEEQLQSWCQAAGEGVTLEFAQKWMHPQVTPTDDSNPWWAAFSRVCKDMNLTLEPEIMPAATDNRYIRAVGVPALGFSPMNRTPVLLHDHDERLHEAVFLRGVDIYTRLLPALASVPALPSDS

[4] = tested on: Hs766t; experiment: In cell dynamic 13C NMR of hyperpolarized [1-13C] NAC at 1T, Hs766t cells; assay type: cell-based, human
Source text: FIG. 2A is a in cell dynamic ^13C NMR spectra of hyperpolarized [1-^13C] NAC at 1T NMR on 20×10^6 cells of human pancreatic tumor cell lines of Hs766t (left) and expanded spectra with 100 times magnifications at 2 seconds after the hyperpolarized [1-^13C] NAC injections in Hs766t (right);
(§2) In an embodiment, a cell dynamic ^13C NMR spectra of hyperpolarized [1-^13C] NAC at 1T NMR spectrometer on human pancreatic ductal adenocarcinoma (PDAC) cell lines, which have one of the worst prognosises among common cancers and need effective diagnostic approaches, Hs766t (FIG. 2A) and SU.86.86 (FIG. 2B), in both cases, the cell dynamic ^13C-nuclear magnetic resonance (NMR) spectra of the hyperpolarized [1-^13C] […]
(§3) All of the animal experiments were conducted in compliance with the Guide for the Care and Use of Laboratory Animal Resources, and experimental protocols were approved by the Animal Care and Use Committee, National Cancer Institute (NCI-CCR-ACUC) (National Research Council, Committee for the Update of the Guide for the Care and Use of Laboratory Animals. Guide for the care and use of laboratory animals. Washington, D.C.: Institute of Laboratory Animal Resources 2011). […] Both respiration (60-90 breaths per min) and temperature (35-37° C.) were maintained at a normal physiological range and monitored continuously during the animal experiment using the adjusted anesthesia.

[5] = tested on: SU.86.86; experiment: In cell dynamic 13C NMR of hyperpolarized [1-13C] NAC at 1T, SU.86.86 cells; assay type: cell-based, human
Source text: FIG. 2B is a in cell dynamic ^13C NMR spectra of hyperpolarized [1-^13C] NAC at 1T NMR on 20×10^6 cells of human pancreatic tumor cell lines of SU.86.86 (left) and expanded spectra with 100 times magnifications at 2 seconds after the hyperpolarized [1-^13C] NAC injections in SU.86.86 (right);
as §2, §3

[6] = Hyperpolarized 13C chemical shift imaging (CSI) in healthy mouse body and head after iv injection

enzymatic conversion by acylase 1 [3]: immediate production of cysteine
time to global distribution throughout the mouse body after injection ([6]; healthy mouse, iv tail vein cannula, 13C CSI): ≤ 30 s
tissue distribution: lung region signal ([6]; healthy mouse, iv, 13C CSI, FIG. 6A): lower signal
metabolites in the liver and kidney regions ([6]; normal mice, in vivo, no imposed oxidative stress): not observed
Compound: CC(=O)N[C@@H](CS)[13C](=O)O [[1-^13C] NAC, [1-^13C] N-acetyl cysteine]
NAC-GSH formation in tumor [1]: rapidly formed
amount of NAC-GSH formed ([2]; Hs766t compared with SU.86.86 tumors, FIGS. 4C and 4D): higher in Hs766t than in SU.86.86 tumors
NAC-GSH formation in tumor ([2]; Hs766t mouse leg xenograft, iv, FIGS. 4A, 4C): rapidly formed
NAC-GSH formation in cell culture ([4]; Hs766t, 20×10^6 cells, FIG. 2C): can produce NAC-glutathione (NAC-GSH)
cell membrane permeation ([4]; PDAC cell cultures (Hs766t and SU.86.86), suggested by the rapid kinetics of NAC-GSH formation): may permeabilize through cell membranes without active transport
NAC-GSH concentrations ([5]; SU.86.86 compared with Hs766t): Lower concentrations NAC-GSH
NAC-GSH formation in cell culture ([5]; SU.86.86, 20×10^6 cells, FIG. 2C): can produce NAC-glutathione (NAC-GSH)
